According to ChEMBL document CHEMBL1201862, “PubChem BioAssay data set” (2004):
“And” between values parts separate entries of the source, which are not always exact repeats. Equal entries are not always repeated.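 Test compounds were applied to cells in 96-well plates for 48 hours at 5 doses. Abbreviation: GI50, concentration required for 50% inhibition of growth.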 The source made the active and inactive calls. No stated cut-off is given here; in the data, active = GI50 up to about 1.1 µM and inactive = higher.

Columns and labels:
Experiment in all cases: inhibition of tumour cell growth, NCI panel, 48 h
[1] = system: NCI-H226
[2] = system: SF-539
[3] = system: UACC-62
[4] = system: U-251
[5] = system: SK-OV-3
[6] = system: OVCAR-3
[7] = system: HCT-116
[8] = system: HOP-62
[9] = system: CCRF-CEM
[10] = system: KM12
[11] = system: EKVX
[12] = system: SK-MEL-2
[13] = system: RPMI-8226
[14] = system: SK-MEL-5
[15] = system: BT-549
[16] = system: A549
[17] = system: SNB-19
[18] = system: PC-3
[19] = system: K562
[20] = system: UO-31
[21] = system: SN12C
[22] = system: 786-0
[23] = system: OVCAR-5
[24] = system: UACC-257
[25] = system: COLO 205
[26] = system: MOLT-4
[27] = system: HOP-92
[28] = system: MCF7
[29] = system: Malme-3M
[30] = system: HL-60
[31] = system: SNB-75
[32] = system: M14
[33] = system: SW-620
[34] = system: CAKI-1
[35] = system: NCI/ADR-RES
[36] = system: SF-295
[37] = system: MDA-MB-231
[38] = system: SK-MEL-28
[39] = system: SR
[40] = system: ACHN
[41] = system: HT-29
[42] = system: NCI-H522
[43] = system: IGROV-1
[44] = system: A498
[45] = system: MDA-MB-435
[46] = system: NCI-H460
[47] = system: LOX IMVI
[48] = system: RXF 393
[49] = system: HCC 2998
[50] = system: OVCAR-4
[51] = system: NCI-H23
[52] = system: OVCAR-8
[53] = system: DU-145
[54] = system: MDA-N
[55] = system: HCT-15
[56] = system: TK-10
[57] = system: SF-268
[58] = system: T47D
[59] = system: Hs-578T

Measured: GI50

CSc1nc2c(c(=O)n1C)N=C(c1ccc([N+](=O)[O-])cc1)CC(c1ccccc1)N2 (stereo not given)
inactive: [1] > 100 µM | [2] > 100 µM | [3] > 100 µM | [4] > 100 µM | [5] > 100 µM | [6] > 100 µM | [7] > 100 µM | [8] > 100 µM | [9] 72.4 µM | [10] 84.3 µM | [11] > 100 µM | [12] > 100 µM | [13] > 100 µM | [14] > 100 µM | [15] > 100 µM | [16] > 100 µM | [17] > 100 µM | [18] > 100 µM | [19] > 100 µM | [20] > 100 µM | [21] > 100 µM | [22] > 100 µM | [23] > 100 µM | [24] > 100 µM | [25] > 100 µM | [26] 33 µM | [27] > 100 µM | [28] 49 µM | [29] > 100 µM | [30] 20.5 µM | [31] 41.2 µM | [32] > 100 µM | [33] > 100 µM | [34] > 100 µM | [35] > 100 µM | [36] > 100 µM | [37] 36.8 µM | [38] > 100 µM | [39] > 100 µM | [40] 95.9 µM | [41] > 100 µM | [42] 48.8 µM | [43] > 100 µM | [44] > 100 µM | [45] > 100 µM | [46] 90.6 µM | [47] 78.9 µM | [48] > 100 µM | [49] > 100 µM | [50] 91.8 µM | [51] 99.8 µM | [52] > 100 µM | [53] > 100 µM

CCOC1C=CCCO1 (stereo not given)
active: [58] 0.701 µM
> 100 µM: [55]
inactive: [54] > 100 µM | [1] > 100 µM | [2] > 100 µM | [3] > 100 µM | [5] > 100 µM | [6] > 100 µM | [7] > 100 µM | [8] > 100 µM | [9] > 100 µM | [10] > 100 µM | [11] > 100 µM | [12] > 100 µM | [13] > 100 µM | [14] > 100 µM | [16] > 100 µM | [17] > 100 µM | [18] > 100 µM | [19] > 100 µM | [20] 2.99 µM | [21] > 100 µM | [22] > 100 µM | [23] > 100 µM | [24] > 100 µM | [25] > 100 µM | [26] > 100 µM | [27] > 100 µM | [28] > 100 µM | [29] > 100 µM | [30] > 100 µM | [31] > 100 µM | [32] > 100 µM | [33] > 100 µM | [34] > 100 µM | [35] > 100 µM | [36] > 100 µM | [37] > 100 µM | [38] > 100 µM | [39] > 100 µM | [40] > 100 µM | [41] > 100 µM | [42] > 100 µM | [43] > 100 µM | [56] > 100 µM | [44] > 100 µM | [57] > 100 µM | [45] > 100 µM | [46] > 100 µM | [47] > 100 µM | [48] > 100 µM | [49] 1.55 µM | [50] > 100 µM | [59] > 100 µM | [51] > 100 µM | [52] > 100 µM | [53] > 100 µM

C#CC1(O)C(COP(=O)(O)OC(COCCCCCCCCCCCCCCCCCC)COP(=O)(O)OCC2OC(n3cc(F)c(=O)[nH]c3=O)CC2O)OC(n2ccc(N)nc2=O)C1O (stereo not given)
1.04 µM (active) and 1.93 µM (inactive): [6]
inactive: [5] 1.32 µM and 2.43 µM | [24] 1.15 µM and 1.92 µM | [49] 1.26 µM
active: [54] 418 nM and 293 nM | [1] 471 nM and 299 nM | [2] < 21.3 nM and < 23.3 nM | [3] 546 nM and 277 nM | [8] 434 nM and 399 nM | [10] 454 nM and 252 nM | [13] 26.2 nM and < 16.3 nM | [14] 621 nM and 467 nM | [15] 752 nM and 466 nM | [16] < 28.8 nM and 29.7 nM | [17] 152 nM and 277 nM | [19] < 31.3 nM and 27.5 nM | [21] 0.0818 µM | [25] 244 nM and 211 nM | [28] < 24.7 nM and < 18.3 nM | [33] 114 nM and 91.8 nM | [34] 48.5 nM and 54.8 nM | [35] 209 nM and 265 nM | [37] 1.1 µM and 731 nM | [39] < 13.8 nM and < 15.7 nM | [40] < 36.1 nM and 59.2 nM | [41] 361 nM and 313 nM | [56] 200 nM and 124 nM | [57] < 27.2 nM and 48.8 nM | [45] 514 nM and 376 nM | [46] < 21.3 nM and < 13.9 nM
